Assay results reported in patent US8222270B2 (Medicis Pharmaceutical Corporation, priority 2008, dated 2012).

How the values were obtained:
[1] = Stability of calibration standards in spent receiver fluid; type: physicochemical; settings: vs T = 0
[2] = 52-week dermal photoco-carcinogenicity study; type: in vivo, hairless mice; settings: 3×/week, 40 weeks, concurrent UV radiation
Text: In a 52-week dermal photoco-carcinogenicity study, the median time to onset of skin tumor formation was decreased in hairless mice following chronic topical dosing (3×/week; 40 weeks of treatment followed by 12 weeks of observation) with concurrent exposure to UV radiation (5 days per week) with vehicle alone.
Vehicle cream enhanced UVR-induced skin tumour development.

[3] = Acute single dose toxicity (oral, intraperitoneal, subcutaneous, intravenous); type: in vivo

## CC(C)Cn1cnc2c(N)nc3ccccc3c21 [imiquimod, 1-(2-methylpropyl)-1H-imidazo[4,5-c]quinolin-4-amine]
[1]; Standard 42.2 μg/ml, Full thickness, 37° C.
  48 h % recovered in Spent receiver fluid: 95.939%
[1]; Standard 42.2 μg/ml, Full thickness, Fridge
  48 h % recovered in Spent receiver fluid: 95.103%
[1]; Standard 42.2 μg/ml, Full thickness, RT
  48 h % recovered in Spent receiver fluid: 95.805%
[1]; Standard 52.75 μg/ml, Epidermal sheet + placebo, 37° C.
  48 h % recovered in Spent receiver fluid: 86.906%
[1]; Standard 52.75 μg/ml, Epidermal sheet + placebo, Fridge
  48 h % recovered in Spent receiver fluid: 85.635%
[1]; Standard 52.75 μg/ml, Epidermal sheet + placebo, RT
  48 h % recovered in Spent receiver fluid: 88.169%
[1]; Standard 52.75 μg/ml, Epidermal sheet, 37° C.
  48 h % recovered in Spent receiver fluid: 90.943%
[1]; Standard 52.75 μg/ml, Epidermal sheet, Fridge
  48 h % recovered in Spent receiver fluid: 87.669%
[1]; Standard 52.75 μg/ml, Epidermal sheet, RT
  48 h % recovered in Spent receiver fluid: 89.096%
[1]; Standard 52.75 μg/ml, Full thickness + placebo, 37° C.
  48 h % recovered in Spent receiver fluid: 93.779%
[1]; Standard 52.75 μg/ml, Full thickness + placebo, Fridge
  48 h % recovered in Spent receiver fluid: 91.776%
[1]; Standard 52.75 μg/ml, Full thickness + placebo, RT
  48 h % recovered in Spent receiver fluid: 92.027%
[1]; Standard 52.75 μg/ml, Full thickness, 37° C.
  48 h % recovered in Spent receiver fluid: 95.282%
[1]; Standard 52.75 μg/ml, Full thickness, Fridge
  48 h % recovered in Spent receiver fluid: 92.317%
[1]; Standard 52.75 μg/ml, Full thickness, RT
  48 h % recovered in Spent receiver fluid: 92.152%
[1]; Standard 84.4 μg/ml, Epidermal sheet + placebo, 37° C.
  48 h % recovered in Spent receiver fluid: 98.178%
[1]; Standard 84.4 μg/ml, Epidermal sheet + placebo, Fridge
  48 h % recovered in Spent receiver fluid: 95.620%
[1]; Standard 84.4 μg/ml, Epidermal sheet + placebo, RT
  48 h % recovered in Spent receiver fluid: 96.033%
[1]; Standard 84.4 μg/ml, Epidermal sheet, 37° C.
  48 h % recovered in Spent receiver fluid: 82.694%
[1]; Standard 84.4 μg/ml, Epidermal sheet, Fridge
  48 h % recovered in Spent receiver fluid: 81.350%
[1]; Standard 84.4 μg/ml, Epidermal sheet, RT
  48 h % recovered in Spent receiver fluid: 82.276%
[1]; Standard 84.4 μg/ml, Full thickness + placebo, 37° C.
  48 h % recovered in Spent receiver fluid: 85.629%
[1]; Standard 84.4 μg/ml, Full thickness + placebo, Fridge
  48 h % recovered in Spent receiver fluid: 84.561%
[1]; Standard 84.4 μg/ml, Full thickness + placebo, RT
  48 h % recovered in Spent receiver fluid: 84.421%
[1]; Standard 84.4 μg/ml, Full thickness, 37° C.
  48 h % recovered in Spent receiver fluid: 101.010%
[1]; Standard 84.4 μg/ml, Full thickness, Fridge
  48 h % recovered in Spent receiver fluid: 98.841%
[1]; Standard 84.4 μg/ml, Full thickness, RT
  48 h % recovered in Spent receiver fluid: 99.790%
[1]; Standard 105.5 μg/ml, Epidermal sheet + placebo, 37° C.
  48 h % recovered in Spent receiver fluid: 84.903%
[1]; Standard 105.5 μg/ml, Epidermal sheet + placebo, Fridge
  48 h % recovered in Spent receiver fluid: 83.833%
[1]; Standard 105.5 μg/ml, Epidermal sheet + placebo, RT
  48 h % recovered in Spent receiver fluid: 84.515%
[1]; Standard 105.5 μg/ml, Epidermal sheet, 37° C.
  48 h % recovered in Spent receiver fluid: 91.501%
[1]; Standard 105.5 μg/ml, Epidermal sheet, Fridge
  48 h % recovered in Spent receiver fluid: 90.465%
[1]; Standard 105.5 μg/ml, Epidermal sheet, RT
  48 h % recovered in Spent receiver fluid: 92.089%
[1]; Standard 105.5 μg/ml, Full thickness + placebo, 37° C.
  48 h % recovered in Spent receiver fluid: 91.704%
[1]; Standard 105.5 μg/ml, Full thickness + placebo, Fridge
  48 h % recovered in Spent receiver fluid: 88.242%
[1]; Standard 105.5 μg/ml, Full thickness + placebo, RT
  48 h % recovered in Spent receiver fluid: 88.546%
[1]; Standard 105.5 μg/ml, Full thickness, 37° C.
  48 h % recovered in Spent receiver fluid: 92.278%
[1]; Standard 105.5 μg/ml, Full thickness, Fridge
  48 h % recovered in Spent receiver fluid: 90.545%
[1]; Standard 105.5 μg/ml, Full thickness, RT
  48 h % recovered in Spent receiver fluid: 92.275%
[1]; Standard […] μg/ml, Epidermal sheet + placebo, 37° C.
  48 h % recovered in Spent receiver fluid: 89.945%
[1]; Standard […] μg/ml, Epidermal sheet + placebo, Fridge
  48 h % recovered in Spent receiver fluid: 84.046%
[1]; Standard […] μg/ml, Epidermal sheet + placebo, RT
  48 h % recovered in Spent receiver fluid: 85.095%
[1]; Standard […] μg/ml, Epidermal sheet, 37° C.
  48 h % recovered in Spent receiver fluid: 97.099%
[1]; Standard […] μg/ml, Epidermal sheet, Fridge
  48 h % recovered in Spent receiver fluid: 93.180%
[1]; Standard […] μg/ml, Epidermal sheet, RT
  48 h % recovered in Spent receiver fluid: 94.971%
[1]; Standard […] μg/ml, Full thickness + placebo, 37° C.
  48 h % recovered in Spent receiver fluid: 90.798%
[1]; Standard […] μg/ml, Full thickness + placebo, Fridge
  48 h % recovered in Spent receiver fluid: 88.307%
[1]; Standard […] μg/ml, Full thickness + placebo, RT
  48 h % recovered in Spent receiver fluid: 86.897%
[1]; Standard […] μg/ml, Full thickness, 37° C.
  48 h % recovered in Spent receiver fluid: 97.826%
[1]; Standard […] μg/ml, Full thickness, Fridge
  48 h % recovered in Spent receiver fluid: 94.989%
[1]; Standard […] μg/ml, Full thickness, RT
  48 h % recovered in Spent receiver fluid: 93.522%
[2]
  Effect on tumor development beyond the vehicle effect: No additional effect on tumor development beyond the vehicle effect
[3]; Monkey, intravenous bolus
  LD50: >6 mg/kg
[3]; Monkey, intravenous infusion
  LD50: ≈8 mg/kg
[3]; Monkey, oral
  LD50: >200 mg/kg
[3]; Rat, subcutaneous
  LD50: ≈20 mg/kg
[3]; oral, intraperitoneal, subcutaneous or intravenous, lethal doses
  Single dose toxicity signs: central nervous system (CNS) stimulation and convulsions
